Laboratory results from patent US11254663B2 (BRISTOL-MYERS SQUIBB COMPANY, priority 2019, dated 2022).

What follows are compounds tested against FXR (Homo sapiens (Human), UniProt Q96RI1) (assay: FXR EC50 (FXR agonist potency reported with each Example)).
Type: cell-based

Chain of FXR (Q96RI1 262-486): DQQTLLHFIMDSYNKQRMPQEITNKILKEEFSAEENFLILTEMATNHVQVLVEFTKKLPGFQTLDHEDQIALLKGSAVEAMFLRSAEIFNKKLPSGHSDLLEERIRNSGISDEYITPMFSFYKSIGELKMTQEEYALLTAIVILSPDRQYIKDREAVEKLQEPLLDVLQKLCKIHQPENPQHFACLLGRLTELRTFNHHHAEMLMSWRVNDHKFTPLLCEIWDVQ

Compound	EC50 [nM]
O=C(N(CC12CCC(c3ccc(C(F)(F)F)cn3)(CC1)CC2)c1cccc(-c2noc(C3CC3)n2)c1)C12CC(F)(C1)C2 [Example 185, N-(3-(5-cyclopropyl-1,2,4-oxadiazol-3-yl)phenyl)-3-fluoro-N-((4-(5-(trifluoromethyl)pyridin-2-yl)bicyclo[2.2.2]octan-1-yl)methyl)bicyclo[1.1.1]pentane-1-carboxamide]	508
O=C(N(CC12CCC(c3nc(C4CC4)no3)(CC1)CC2)c1cccc(-c2noc(C(F)(F)F)n2)c1)C12CC(F)(C1)C2 [Example 108, N-((4-(3-cyclopropyl-1,2,4-oxadiazol-5-yl)bicyclo[2.2.2]octan-1-yl)methyl)-3-fluoro-N-(3-(5-(trifluoromethyl)-1,2,4-oxadiazol-3-yl)phenyl)bicyclo[1.1.1]pentane-1-carboxamide]	144
CC(C)(C)c1nc(C23CCC(CN(C(=O)C45CC(F)(C4)C5)c4cccc(-c5cnn(S(C)(=O)=O)c5)c4)(CC2)CC3)no1 [Example 194, N-((4-(5-(tert-butyl)-1,2,4-oxadiazol-3-yl)bicyclo[2.2.2]octan-1-yl)methyl)-3-fluoro-N-(3-(1-(methylsulfonyl)-1H-pyrazol-4-yl)phenyl)bicyclo[1.1.1]pentane-1-carboxamide]	16
O=C(N(CC12CCC(c3nc(C4CC4)no3)(CC1)CC2)c1cccc(-n2cc(C3CC3)nn2)c1)C12CC(F)(C1)C2 [Example 219, N-((4-(3-cyclopropyl-1,2,4-oxadiazol-5-yl)bicyclo[2.2.2]octan-1-yl)methyl)-N-(3-(4-cyclopropyl-1H-1,2,3-triazol-1-yl)phenyl)-3-fluorobicyclo[1.1.1]pentane-1-carboxamide]	98.4
CCOc1cc(-c2cccc(N(CC34CCC(c5nc(C6CC6)no5)(CC3)CC4)C(=O)C34CC(F)(C3)C4)c2)no1 [Example 25, N-((4-(3-cyclopropyl-1,2,4-oxadiazol-5-yl)bicyclo[2.2.2]octan-1-yl)methyl)-N-(3-(5-ethoxyisoxazol-3-yl)phenyl)-3-fluorobicyclo[1.1.1]pentane-1-carboxamide]	87
O=C(N(CC12CCC(c3nc(C4CC4)no3)(CC1)CC2)c1cccc(-c2noc(C3CC3)n2)c1)C12CC(F)(C1)C2 [Example 104, N-(3-(5-cyclopropyl-1,2,4-oxadiazol-3-yl)phenyl)-N-((4-(3-cyclopropyl-1,2,4-oxadiazol-5-yl)bicyclo[2.2.2]octan-1-yl)methyl)-3-fluorobicyclo[1.1.1]pentane-1-carboxamide]	60
Cn1nc(C(C)(C)C)cc1-c1cccc(N(CC23CCC(c4noc(C(C)(C)C)n4)(CC2)CC3)C(=O)C23CC(F)(C2)C3)c1 [Example 213, N-((4-(5-(tert-butyl)-1,2,4-oxadiazol-3-yl)bicyclo[2.2.2]octan-1-yl)methyl)-N-(3-(3-(tert-butyl)-1-methyl-1H-pyrazol-5-yl)phenyl)-3-fluorobicyclo[1.1.1]pentane-1-carboxamide]	198
Cn1nc(C23CCC(CN(C(=O)C45CC(F)(C4)C5)c4cccc(-c5noc(C(C)(C)C)n5)c4)(CC2)CC3)cc1C1CC1 [Example 167, N-(3-(5-(tert-butyl)-1,2,4-oxadiazol-3-yl)phenyl)-N-((4-(5-cyclopropyl-1-methyl-1H-pyrazol-3-yl)bicyclo[2.2.2]octan-1-yl)methyl)-3-fluorobicyclo[1.1.1]pentane-1-carboxamide]	69
O=C(C1CC(F)(F)C1)N(CC12CCC(c3nc(C4CC4)no3)(CC1)CC2)c1cccc(-c2cnc(C3CC3)o2)c1 [Example 22, N-((4-(3-cyclopropyl-1,2,4-oxadiazol-5-yl)bicyclo[2.2.2]octan-1-yl)methyl)-N-(3-(2-cyclopropyloxazol-5-yl)phenyl)-3,3-difluorocyclobutane-1-carboxamide]	133
CCc1noc(-c2cccc(N(CC34CCC(c5nc(C6CC6)no5)(CC3)CC4)C(=O)[C@H]3C[C@](O)(C(F)(F)F)C3)c2)n1 [Example 5, (1s, 3s)-N-((4-(3-cyclopropyl-1,2,4-oxadiazol-5-yl)bicyclo[2.2.2]octan-1-yl)methyl)-N-(3-(3-ethyl-1,2,4-oxadiazol-5-yl)phenyl)-3-hydroxy-3-(trifluoromethyl)cyclobutane-1-carboxamide]	182
O=C(N(CC12CCC(c3nc(CC4CC4)no3)(CC1)CC2)c1cccc(-c2nc(CC3CC3)no2)c1)C12CC(F)(C1)C2 [Example 61, N-((4-(3-(cyclopropylmethyl)-1,2,4-oxadiazol-5-yl)bicyclo[2.2.2]octan-1-yl)methyl)-N-(3-(3-(cyclopropylmethyl)-1,2,4-oxadiazol-5-yl)phenyl)-3-fluorobicyclo[1.1.1]pentane-1-carboxamide]	99
O=C(C1CC(C(F)F)C1)N(CC12CCC(c3nc(C4CC4)no3)(CC1)OC2)c1cccc(-c2nc(C3CC3)no2)c1 (stereo not drawn) [Example 198, N-((1-(3-cyclopropyl-1,2,4-oxadiazol-5-yl)-2-oxabicyclo[2.2.2]octan-4-yl)methyl)-N-(3-(3-cyclopropyl-1,2,4-oxadiazol-5-yl)phenyl)-3-(difluoromethyl)cyclobutane-1-carboxamide]	909
Cn1nc(-c2cccc(N(CC34CCC(c5nc(C6CC6)no5)(CC3)CC4)C(=O)C3CCC(F)(F)C3)c2)cc1C1CC1 (stereo not drawn) [Example 77, N-((4-(3-cyclopropyl-1,2,4-oxadiazol-5-yl)bicyclo[2.2.2]octan-1-yl)methyl)-N-(3-(5-cyclopropyl-1-methyl-1H-pyrazol-3-yl)phenyl)-3,3-difluorocyclopentane-1-carboxamide]	429
O=C(N(CC12CCC(c3nc(C4CC4)no3)(CC1)CC2)c1cccc(-c2noc(C(F)F)n2)c1)C12CC(F)(C1)C2 [Example 105, N-((4-(3-cyclopropyl-1,2,4-oxadiazol-5-yl)bicyclo[2.2.2]octan-1-yl)methyl)-N-(3-(5-(difluoromethyl)-1,2,4-oxadiazol-3-yl)phenyl)-3-fluorobicyclo[1.1.1]pentane-1-carboxamide]	57
Cn1nc(C23CCC(CN(C(=O)C45CC(F)(C4)C5)c4cccc(-c5noc(C(F)F)n5)c4)(CC2)CC3)cc1C1CC1 [Example 168, N-((4-(5-cyclopropyl-1-methyl-1H-pyrazol-3-yl)bicyclo[2.2.2]octan-1-yl)methyl)-N-(3-(5-(difluoromethyl)-1,2,4-oxadiazol-3-yl)phenyl)-3-fluorobicyclo[1.1.1]pentane-1-carboxamide]	111
CCCc1ncc(-c2cccc(N(CC34CCC(c5cc(C(F)(F)F)ccn5)(CC3)CC4)C(=O)C34CC(F)(C3)C4)c2)o1 [Example 52, 3-fluoro-N-(3-(2-propyloxazol-5-yl)phenyl)-N-((4-(4-(trifluoromethyl)pyridin-2-yl)bicyclo[2.2.2]octan-1-yl)methyl)bicyclo[1.1.1]pentane-1-carboxamide]	242
O=C(N(CC12CCC(c3noc(C(F)F)n3)(CC1)CC2)c1cccc(-c2nc(C3CC3)no2)c1)C12CC(F)(C1)C2 [Example 117, N-(3-(3-cyclopropyl-1,2,4-oxadiazol-5-yl)phenyl)-N-((4-(5-(difluoromethyl)-1,2,4-oxadiazol-3-yl)bicyclo[2.2.2]octan-1-yl)methyl)-3-fluorobicyclo[1.1.1]pentane-1-carboxamide]	12
COc1cc(-c2cccc(N(CC34CCC(c5ccc(C(C)(C)C#N)cc5)(CC3)OC4)C(=O)C3CCC3)c2)ccn1 [Example 223, N-((1-(4-(2-cyanopropan-2-yl)phenyl)-2-oxabicyclo[2.2.2]octan-4-yl)methyl)-N-(3-(2-methoxypyridin-4-yl)phenyl)cyclobutanecarboxamide]	313
Cc1noc(-c2cccc(N(CC34CCC(c5ccc(C6CC6)cc5)(CC3)CC4)C(=O)C(C)C)c2)n1 [Example 1, N-((4-(4-cyclopropylphenyl)bicyclo[2.2.2]octan-1-yl)methyl)-N-(3-(3-methyl-1,2,4-oxadiazol-5-yl)phenyl)isobutyramide]	1830
O=C(C1CC(C(F)F)C1)N(CC12CCC(c3nc(C4CC4)no3)(CC1)OC2)c1cccc(-c2cc(C3CC3)on2)c1 (stereo not drawn) [Example 201, N-((1-(3-cyclopropyl-1,2,4-oxadiazol-5-yl)-2-oxabicyclo[2.2.2]octan-4-yl)methyl)-N-(3-(5-cyclopropylisoxazol-3-yl)phenyl)-3-(difluoromethyl)cyclobutane-1-carboxamide]	384
COc1ccc(C23CCC(CN(C(=O)C45CC(F)(C4)C5)c4cccc(-c5nc(C6CC6)no5)c4)(CC2)CO3)cc1 [Example 128, N-(3-(3-Cyclopropyl-1,2,4-oxadiazol-5-yl)phenyl)-3-fluoro-N-((1-(4-methoxyphenyl)-2-oxabicyclo[2.2.2]octan-4-yl)methyl)bicyclo[1.1.1]pentane-1-carboxamide]	403
COc1ccc(C23CCC(CN(C(=O)C4CC(F)(F)C4)c4cccc(-c5nc(C6CC6)no5)c4)(CC2)CO3)cc1 [Example 129, N-(3-(3-Cyclopropyl-1,2,4-oxadiazol-5-yl)phenyl)-3,3-difluoro-N-((1-(4-methoxyphenyl)-2-oxabicyclo[2.2.2]octan-4-yl)methyl)cyclobutane-1-carboxamide]	1140
CC1(c2nc(C34CCC(CN(C(=O)C56CC(F)(C5)C6)c5cccc(-c6nnc(C7CC7)o6)c5)(CC3)CC4)no2)CC1 [Example 154, N-(3-(5-cyclopropyl-1,3,4-oxadiazol-2-yl)phenyl)-3-fluoro-N-((4-(5-(1-methylcyclopropyl)-1,2,4-oxadiazol-3-yl)bicyclo[2.2.2]octan-1-yl)methyl) bicyclo[1.1.1]pentane-1-carboxamide]	27
CC(N(C(=O)C12CC(F)(C1)C2)c1cccc(-c2cnc(C3CC3)o2)c1)C12CCC(c3nc(C4CC4)no3)(CC1)CC2 (single isomer, unassigned) [Example 216, N-(1-(4-(3-cyclopropyl-1,2,4-oxadiazol-5-yl)bicyclo[2.2.2]octan-1-yl)ethyl)-N-(3-(2-cyclopropyloxazol-5-yl)phenyl)-3-fluorobicyclo[1.1.1]pentane-1-carboxamide]	511
